Patent US20070154567A1, “Use of mercury to treat cancer” (priority 2006, published 2007)
“And” between values parts separate entries of the source, which are not always exact repeats. Equal entries are not always repeated.

Test system: non-metastatic osteosarcoma on distal right radius
Assay: Oral inorganic mercury (II) treatment of a pet Rottweiler: blood data and clinical follow-up
Type: in vivo, dog
Set-up: MCV / MCH / Neutrophils, absolute / Bands / Lymphocytes, absolute / Monocytes, absolute / Eosinophils, absolute / Basophils, absolute: unit not given here
From the text: An 8 year old, 108 lbs female Rottweiler, was diagnosed with non-metastatic osteosarcoma on distal right radius.
Earlier cisplatin chemotherapy was attempted, but was stopped due to unacceptable side effects one month before the inorganic mercury treatment. Prior to treatment, the dog had high alkaline phosphatase (ALP) level that had been rising as disease progressed (compare Day (−57) and Day 1 in Table 2). ALP is a known progression marker for osteosarcoma (Kirpensteijn et al., 2002, Vet Pathol 39:240-246 and Gaetano Bacci et al., 2002, Oncology Reports 9: 171-175). The dog completed the first 30-day treatment course followed by a 30-day non-treatment period and started the second treatment course for at least up to day 65. The formulation contained 1 mM mercury acetate in 20 mM sodium acetate buffer, pH 4.5, with 100 mM sucrose and 150 mM sodium chloride additives. It was introduced orally to the dog three times a day at 0.5 micromole Hg^2+/kg/day. […] This drop in ALP level (˜250 Units/month) was significant considering that, prior to starting the mercury (II) treatment, it had been raising at ˜50 U/month rate. As observed by the attending veterinarian, the dog's appetite was increased and the dog gained 5 lbs during that period. […] During this period the condition of the dog worsened and was accompanied by an increase in ALP level (compare Day 32 and Day 65 in Table 3). The dog was euthanized on Day 91.

## CC(=O)[O-].CC(=O)[O-].[Hg+2] [inorganic mercury (II), mercury acetate]
2nd treatment course, formulation administered with food in violation of the protocol
  condition of the dog: worsened
Day 1
  ALT (SGPT): 61 U/L
  AST (SGOT): 28 U/L
  Albumin: 3.7 g/dL
  Albumin/Globulin Ratio: 1.1
  Alkaline Phosphatase (ALP): 794 U/L and 794 (H) U/L
  Amylase: 862 U/L
  BUN/Creatinine Ratio: 9
  Bands: 0
  Basophils, absolute: 0
  CPK: 175 U/L
  Calcium: 10.6 mg/dL
  Chloride: 116 mE/L
  Cholesterol: 240 mg/dL
  Creatinine: 1.2 mg/dL
  Eosinophils, (%): 7%
  Eosinophils, absolute: 770
  Globulin: 3.4 g/dL
  Glucose: 77 mg/dL
  Hematocrit: 41.3%
  Hemoglobin: 13.7 g/dL
  Lymphocytes, (%): 26%
  Lymphocytes, absolute: 2860
  MCH: 22.2
  MCHC: 33.2
  MCV: 67
  Monocytes, (%): 6%
  Monocytes, absolute: 660
  Neutrophils, (%): 61%
  Neutrophils, absolute: 6710
  Phosphorus: 5.4 mg/dL
  Platelet count: 475 (H) 10^3/microl
  Potassium: 5.2 mE/L
  RBC: 6.16 10^6/microl
  Sodium: 152 mE/L
  Total Billirubin: 0.1 mg/dL
  Total Protein: 7.1 g/dL
  Urea Nitrogen: 11 mg/dL
  WBC: 11.0 10^3/microl
Day 1 to Day 32, first treatment course
  drop in ALP level: ~250 Units/month
Day 32
  ALT (SGPT): 61 U/L
  AST (SGOT): 27 U/L
  Albumin: 3.5 g/dL
  Albumin/Globulin Ratio: 1.1
  Alkaline Phosphatase (ALP): 539 U/L and 539 (H) U/L
  Amylase: 864 U/L
  BUN/Creatinine Ratio: 12
  Bands: 0
  CPK: 198 U/L
  Calcium: 10.5 mg/dL
  Chloride: 118 mE/L
  Cholesterol: 251 mg/dL
  Creatinine: 1.3 mg/dL
  Eosinophils, (%): 5%
  Eosinophils, absolute: 495
  Globulin: 3.3 g/dL
  Glucose: 102 mg/dL
  Hematocrit: 39.1%
  Hemoglobin: 13.9 g/dL
  Lymphocytes, (%): 35%
  Lymphocytes, absolute: 3465
  MCH: 24.6
  MCHC: 35.5
  MCV: 69
  Monocytes, (%): 5%
  Monocytes, absolute: 495
  Neutrophils, (%): 55%
  Neutrophils, absolute: 5445
  Phosphorus: 5.5 mg/dL
  Platelet count: 213 10^3/microl
  Potassium: 5.2 mE/L
  RBC: 5.64 10^6/microl
  Sodium: 146 mE/L
  Total Billirubin: 0.2 mg/dL
  Total Protein: 6.8 g/dL
  Urea Nitrogen: 16 mg/dL
  WBC: 9.9 10^3/microl
Day 65
  ALT (SGPT): 62 U/L
  AST (SGOT): 30 U/L
  Albumin: 3.8 g/dL
  Albumin/Globulin Ratio: 1.0
  Alkaline Phosphatase (ALP): 606 (H) U/L
  Amylase: 1003 U/L
  BUN/Creatinine Ratio: 13
  Bands: 0
  Basophils, absolute: 0
  CPK: 171 U/L
  Calcium: 10.9 mg/dL
  Chloride: 113 mE/L
  Cholesterol: 244 mg/dL
  Creatinine: 1.2 mg/dL
  Eosinophils, (%): 8%
  Eosinophils, absolute: 808
  Globulin: 3.8 (H) g/dL
  Glucose: 87 mg/dL
  Hematocrit: 42.3%
  Hemoglobin: 16.1 g/dL
  Lymphocytes, (%): 33%
  Lymphocytes, absolute: 3333
  MCH: 24.8
  MCHC: 38.1 (H)
  MCV: 65
  Monocytes, (%): 4%
  Monocytes, absolute: 404
  Neutrophils, (%): 55%
  Neutrophils, absolute: 5555
  Phosphorus: 5.1 mg/dL
  Platelet count: 368 10^3/microl
  Potassium: 4.6 mE/L
  RBC: 6.49 10^6/microl
  Sodium: 150 mE/L
  Total Billirubin: 0.1 mg/dL
  Total Protein: 7.5 (H) g/dL
  Urea Nitrogen: 15 mg/dL
  WBC: 10.1 10^3/microl
First 30 days of treatment
  weight gained: 5 lbs
First 30 days of treatment, observed by attending veterinarian
  appetite: increased
